One data set deals with DHBV. Put plainly: Evaluation of in vivo anti-hepatitis B virus effect (serum DHBV DNA, dot-blot hybridization). The arrangement: species or system sheld ducks (Tadorna). The conditions noted are these: intragastric once daily. The method, then:
The sheld ducks (Tadorna) with vertical transmission infection and positive DHBV DNA were randomly grouped, 8 sheld ducks each group. […] Blood was collected intravenously prior to administration (T0) and 7 days (T7), 14 days (T14), 21 days (T21) and 28 days ([…]) after administration, and the serum was separated and frozen at -70° C. for determination. Determination of DHBV DNA content in serum by using dot-blot molecular hybridization was as follows: the duck serum described above was taken, spots were simultaneously formed on detection films for each batch, the change of the DHBV DNA level in the duck serum was determined, the DHBV DNA probe was labeled by ^32P according to the method of the instruction of the nick translation kit, and a duck serum dot-blot experiment was performed.

Data set [1] relates to influenza A virus mouse lung adaptive strain A/PR/8/34. It is filed as in vivo, Kunming mice.
On the set-up of data set [2]: species or system SD rats. The conditions noted are these: male, SD, rat, in vivo, po. The method, then: 34.75 mg of nitazoxanide was added to 10 mL of 0.5% sodium carboxymethylcellulose solution, and the mixture was mixing homogeneously for later use; 41.67 mg of tizoxanide choline salt of formula (I) prepared in Example 2 was added to 10 mL of 0.5% sodium carboxymethylcellulose solution, and the mixture was mixed homogeneously for later use; 30 mg of tizoxanide was added to 5 mL of 0.5% sodium carboxymethylcellulose solution, followed by addition of 40% aqueous choline hydroxide solution, and the mixture was mixed homogeneously, and then added with 0.5% sodium carboxymethyl cellulose solution to a final volume of 10 mL to obtain a mixture of tizoxanide and choline for later use. […] Provided were male SD rats weighing 180 g to 220 g, 3 rats each group; all animals were fasted for 12 h prior to administration. The rats were separately administered intragastrically with the solution of the nitazoxanide, the solution of the tizoxanide choline salt of formula (I) or the mixture of tizoxanide and choline described above at a dose of 10 mL/kg each. […] The collected blood was added with sodium heparin for anticoagulation, followed by centrifugation to separate plasma, and the plasma was storing at −80° C. for determination. The content of tizoxanide in plasma was determined by LC-MS/MS (instrument: LC-MS/MS-19, TQ5500 Triple quad); internal Standard (IS) was tolbutamide; mass spectrum conditions: an electrospray ion source and a negative ion multiple reaction detection (Tizoxanide: […] ACQUITY UPLC CORTECS T3, 2.7 μm (2.1×100 mm); column temperature was 40° C.; flow rate was 0.6 mL/min. The pharmacokinetic parameters were calculated by utilizing WinNonlin according to the plasma concentration data at different time points. The results are shown in Table 1: […]

For data set [3] the following is noted: in vivo, po; cited from earlier work.
Setting [4] is: 200 mg/kg active ingredient basis, T0 (prior to administration).
Setting [5] is: 200 mg/kg active ingredient basis, T7 (7 days).
The mark [6] stands for this setting: 200 mg/kg active ingredient basis, T14 (14 days).
The mark [7] stands for this setting: 200 mg/kg active ingredient basis, T21 (21 days).
The mark [8] stands for this setting: 200 mg/kg active ingredient basis, T28 (28 days).

“And” between values parts separate entries of the source, which are not always exact repeats. Equal entries are not always repeated. Structures can show the parent of a compound that is named as a salt. Where two headings read alike, the source gives them in different places.

As a reminder, the AUC(0-t) is the area under the concentration-time curve up to a stated or last time point. A high value points to high exposure. By Cmax is commonly meant the highest concentration seen after dosing. A word on the Tmax: it is the time from dosing to the highest level. For `O=C(Nc1ncc([N+](=O)[O-])s1)c1ccccc1O` [Tizoxanide choline salt of formula (I), tizoxanide choline salt], the OD490 value with DHBV (100 mg/kg active ingredient basis, T0 (prior to administration)) was 1.47 ± 0.20; with DHBV (100 mg/kg active ingredient basis, T7 (7 days)), 0.43 ± 0.18**ΔΔ; with DHBV (100 mg/kg active ingredient basis, T14 (14 days)) it was 0.39 ± 0.34**ΔΔ; with DHBV (100 mg/kg active ingredient basis, T21 (21 days)), 0.34 ± 0.25**ΔΔ; in the data set on DHBV (100 mg/kg active ingredient basis, T28 (28 days)), 0.53 ± 0.37**ΔΔ; with DHBV (setting [4]), 0.96 ± 0.47. The OD490 value is listed as 0.15 ± 0.08**ΔΔ in the data set on DHBV (setting [5]), 0.10 ± 0.05**ΔΔ in the data set on DHBV (setting [6]), 0.07 ± 0.04**ΔΔ with DHBV (setting [7]) and 0.27 ± 0.17**ΔΔ in the data set on DHBV (setting [8]). The Survival rates in data set [1] (mouse, in vivo) is 9/10 and 3/10. In data set [2], the “AUC(0-t)” value came out at 2070.01 ng·h/mL. Further, the “AUC(0-∞)” value in data set [2] is 2280.30 ng·h/mL. The compound also yielded a Cmax in data set [2] of 837.16 ng/mL. The compound further gave a T1/2 in data set [2] of 2.53 h. In addition, the Tmax in data set [2] amounted to 0.25 h.
For `CC(=O)Oc1ccccc1C(=O)Nc1ncc([N+](=O)[O-])s1` [Nitazoxanide, o-N-(5-nitrothiazol-2-yl)carbamoyl-phenol-acetate, reference compound], the OD490 value is 1.67 ± 0.11 with DHBV (setting [4]); 1.37 ± 0.27 in the data set on DHBV (setting [5]); 1.19 ± 0.51 in the data set on DHBV (setting [6]); 0.72 ± 0.38**ΔΔ with DHBV (setting [7]); 0.72 ± 0.48**ΔΔ in the data set with DHBV (setting [8]). Besides, the Survival rates in data set [1] (50 mg/kg active ingredient basis, intragastric 2 times daily for 5 days, […], observed 14 days) was 2/10; in data set [1] (100 mg/kg active ingredient basis, intragastric 2 times daily for 5 days, […], observed 14 days), 7/10. Further, the “original form of nitazoxanide in blood” value in data set [3] is on record as “undetectable”. Also, the “AUC(0-t)” value in data set [2] was 1325.50 ng·h/mL. Further, the “AUC(0-∞)” value in data set [2] is 1327.91 ng·h/mL. Further, the Cmax in data set [2] is reported as 380.55 ng/mL. In addition, the T1/2 in data set [2] amounted to 0.65 h. Moreover, the time to peak (Tmax) in data set [2] is 2.00 h.

Values taken from patent publication US12378210B2, “Pharmaceutical composition comprising tizoxanide and pharmaceutical use thereof” (BEIJING JUNKE HUAYUAN MED TECH CO., LTD., priority 2020, dated 2025).
